Assay results: US20220257552A1, “METHODS OF PRESCREENING AND TREATING BREAST CANCERS WITH SELECTIVE ANDROGEN RECEPTOR MODULATORS” (priority 2021, published 2022)

Legend:
ER-β = target: T1, ER-β (Rattus norvegicus, UniProt Q62986); experiment: ER-β transactivation in HEK-293 cells; type: cell-based
T1 construct: expressed in transfected cells
Experimental: Rat GR, MR, PR, ER-α and ER-β were individually cloned into a pCR3.1 vector backbone. Sequencing was performed to verify the absence of any mutations. HEK-293 cells were plated at 90,000 cells per well of a 24 well plate in Dulbecco's Minimal Essential Media supplemented with 5% charcoal-stripped FBS. […] Luciferase assays were performed 48 h after transfection. Transcriptional activation values are represented as firefly luciferase normalized to renilla luciferase.

[1] = Phase 1 multiple ascending dose study G100402; type: in vivo, human
Excerpt: These include: 1. Protocol G100401, a Phase 1 single ascending dose study in 96 healthy, young, male volunteers; 2. Protocol G100402, a Phase 1 multiple ascending dose study in 50 healthy, young, male volunteers, and 23 elderly male volunteers with truncal obesity; 3. Protocol G100503, a Phase 1 single dose pharmacokinetic study to assess the effect of a dosage regimen that simulates a sustained release formulation to an immediate release formulation in 18 healthy, young male volunteers and 18 postmenopausal women; 4. Protocol G100506, a Phase 1 single dose pharmacokinetic study to assess the relative bioavailability of a 3 mg hard shell capsule formulation to be used during continued clinical development and to assess the effect of food on the pharmacokinetics of the 3 mg softgel formulation in 27 healthy, young, male volunteers; 5. Protocol 006, a Phase 1 single dose and multiple dose pharmacokinetic study in 24 postmenopausal, Japanese women; 6. Protocol G200501, a Phase 2 study in 60 postmenopausal women and 60 elderly men to assess lean body mass and physical function; 7. Protocol 003, a Phase 1b study in 44 postmenopausal women; 8. Protocol G200502, a Phase 2b study in 159 men and postmenopausal women with cancer to assess lean body mass and physical function; 9.
Both 10 mg and 30 mg daily doses were evaluated in Protocol G100402 for up to 14 days. […]

HCI-7 PDX = experiment: HCI-7 (HCI-007) patient-derived xenograft in NSG mice; type: in vivo
Experimental: HCI-007 tumor pieces (1 mm^3) were implanted surgically (one per mouse) under the skin on the flanks of NSG mice. Simultaneously, 17β-estradiol pellet (Innovative Research of America) was implanted surgically under the skin of each mouse. Tumors were allowed to grow and reach approximately 100 mm^3 volume (1*W*W*0.526). […] Tumor volume was measured weekly and represented as % change in tumor volume (FIG. 32). Mice were sacrificed and tumors stored for further analysis.
All animal protocols were approved by The University of Tennessee Health Science Center (UTHSC) Institutional Animal Care and Use Research Committee. Xenograft experiments were performed as previously published (Narayanan et al. (2014) PLoS One 9, e103202). Briefly, 3 million MCF-7 cells were suspended in 0.05 ml MEM+10% FBS and 0.05 ml Matrigel/nude mouse and were injected subcutaneously. Once the tumor size reached 100-200 mm^3, the animals were randomized and treated orally with the indicated drugs formulated in DMSO:PEG-300 (15:85). HCI-7, HCI-9, and HCI-13 PDXs were gifts kindly donated by Dr. Alana Welm (Huntsman Cancer Institute, Salt Lake City, Utah). HCI PDX tumor fragments (1 mm^3) were surgically implanted under the mammary fat pad in female NOD SCID Gamma (NSG) mice. Tumor volume was measured twice weekly for MCF-7 xenograft and once or twice weekly for HCI PDXs. At the end of the study, animals were sacrificed and tumors were excised, weighed, and stored for various analyses.
From the several PDXs available, three AR-positive PDXs were identified, based on gene expression profile. […] The enzalutamide dose was selected based on previous published experiments (Park et al. (2016) Cancer Invest 34, 517-520; Pollock et al. (2016) Nat Chem Biol 12, 795-801) as well as from internal experiments conducted in prostate cancer xenografts and in Hershberger studies.

MCF-7-GFP cells = type: cell-based, human
Excerpt: Tumor microenvironment contains tumor epithelial cells, stromal cells, cancer-associated fibroblasts (CAFs), and endothelial cells. The collective function of these cells promotes the aggressive growth of tumors due to secretion of paracrine factors. The CAFs are important for the sustained growth of cancers, and they differ from normal fibroblasts in their capacity to secrete factors that promote proliferation of cancer cells. […] Medium was collected over a period of 10 days and pooled. CAFs were stained with SRB to evaluate the effect of AR ligands on proliferation.
Conditioned medium was replaced on days 4 and 7 and the cells were stained with SRB to measure viability.

T1 sequence (Q62986 whole entry): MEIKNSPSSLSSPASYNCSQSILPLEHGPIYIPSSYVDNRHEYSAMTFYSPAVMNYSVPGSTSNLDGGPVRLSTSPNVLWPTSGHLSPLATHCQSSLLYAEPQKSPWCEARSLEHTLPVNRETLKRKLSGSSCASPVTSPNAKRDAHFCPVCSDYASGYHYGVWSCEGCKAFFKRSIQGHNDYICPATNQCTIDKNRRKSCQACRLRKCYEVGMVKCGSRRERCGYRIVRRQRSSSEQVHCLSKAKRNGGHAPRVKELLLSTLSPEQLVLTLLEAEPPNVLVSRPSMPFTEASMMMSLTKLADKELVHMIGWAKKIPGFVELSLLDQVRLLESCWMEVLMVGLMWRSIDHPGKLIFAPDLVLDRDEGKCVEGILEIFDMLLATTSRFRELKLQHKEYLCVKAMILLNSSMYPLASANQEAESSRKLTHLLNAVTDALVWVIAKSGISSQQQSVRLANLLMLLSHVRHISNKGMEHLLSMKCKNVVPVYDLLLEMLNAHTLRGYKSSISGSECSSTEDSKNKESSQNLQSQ

C[C@](O)(COc1ccc(C#N)cc1)C(=O)Nc1ccc(C#N)c(Cl)c1 [Formula VIII, (S)—N-(3-chloro-4-cyanophenyl)-3-(4-cyanophenoxy)-2-hydroxy-2-methylpropanamide]
17β-estradiol-induced ER-β activity, antagonist mode (ER-β; co-incubation): failed to alter
ERβ-mediated transactivation, agonist mode (ER-β; highest tested concentration 1 μM): failed to activate

C[C@](O)(COc1ccc(C#N)cc1)C(=O)Nc1ccc(C#N)c(C(F)(F)F)c1 [Formula IX, (S)—N-(4-Cyano-3-(trifluoromethyl)phenyl)-3-(4-cyanophenoxy)-2-hydroxy-2-methylpropanamide]
subjects with ALT increases above two times the ULN ([1]; 30 mg dose group): six
tolerability ([1]; daily doses up to 30 mg, healthy male volunteers): well tolerated
tumor growth (HCI-7 PDX; 10 mg/kg Formula IX, 30 mg/kg enzalutamide, orally): inhibited significantly
tumor weights at end of study (HCI-7 PDX; 10 mg/kg orally): significantly smaller
tumor growth (% change in tumor volume) (HCI-7 PDX; Formula IX 10 mg/kg, enzalutamide 20 mg/kg, orally, vs vehicle): grew slowly
proliferation of breast cancer CAFs (MCF-7-GFP cells): neither AR agonist, DHT and Formula IX, nor AR antagonist enzalutamide, affected the proliferation
proliferation of MCF-7-GFP cells fed conditioned medium from treated CAFs (MCF-7-GFP cells; 10 days): inhibited the proliferation
